Reference: the supplement of paper PMC10307832

Assays:
Test in all cases: relative viability (nuclei count vs DMSO), 5 days (fraction); higher = more cells survive
[1] = compound: COc1cc2ncn(-c3cc(OCc4ccccc4C(F)(F)F)c(C(N)=O)s3)c2cc1OC
How it was run: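 Viability here means nuclei in treated wells divided by nuclei in vehicle wells, reported as the median across plates. Only plates with control CV below 25% and at least one doubling passed. Lung cancer cell lines in 1536-well plates were exposed to five √10-spaced library-drug doses for 5 days and counted from 4× Hoechst images in MetaXpress.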

[2] = compound: COc1cc2ncn(-c3cc(OCc4ccccc4C(F)(F)F)c(C(N)=O)s3)c2cc1OC + O=C(CCCCCCC(=O)Nc1ccccc1)NO [Vorinostat] (partner 1 µM)
How it was run: (§1)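 One day after seeding in 1536-well plates, lung cancer cell lines were dosed by pin tool. Dosing was either single-drug or a fixed anchor-drug dose plus five library-drug doses (not always all listed) in √10 steps. After 5 days, nuclei were stained in one fix-and-stain step and counted on 4× images, and relative viability is the nuclei count of treated wells over that of vehicle wells, given as the median of duplicate plates.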

[3] = compound: COc1cc2ncn(-c3cc(OCc4ccccc4C(F)(F)F)c(C(N)=O)s3)c2cc1OC + CC(=O)c1c(C)c2cnc(Nc3ccc(N4CCNCC4)cn3)nc2n(C2CCCC2)c1=O [Palbociclib] (partner 0.5 µM)
How it was run: as §1

[4] = compound: COc1cc2ncn(-c3cc(OCc4ccccc4C(F)(F)F)c(C(N)=O)s3)c2cc1OC + CC(=O)Nc1cccc(-n2c(=O)n(C3CC3)c(=O)c3c(Nc4ccc(I)cc4F)n(C)c(=O)c(C)c32)c1 [Trametinib] (partner 0.02 µM)
How it was run: as §1

[5] = compound: COc1cc2ncn(-c3cc(OCc4ccccc4C(F)(F)F)c(C(N)=O)s3)c2cc1OC + Cc1cc(Nc2cc(N3CCN(C)CC3)nc(Sc3ccc(NC(=O)C4CC4)cc3)n2)n[nH]1 [Tozasertib] (partner 0.1 µM)
How it was run: as §1

[6] = compound: COc1cc2ncn(-c3cc(OCc4ccccc4C(F)(F)F)c(C(N)=O)s3)c2cc1OC + NC(=O)Nc1cc(-c2cccc(F)c2)sc1C(=O)N[C@H]1CCCNC1 [AZD7762] (partner 0.2 µM)
How it was run: as §1

[7] = compound: COc1cc2ncn(-c3cc(OCc4ccccc4C(F)(F)F)c(C(N)=O)s3)c2cc1OC + CCNC(=O)c1noc(-c2cc(C(C)C)c(O)cc2O)c1-c1ccc(CN2CCOCC2)cc1 [Luminespib] (partner 0.01 µM)
How it was run: as §1

[8] = compound: COc1cc2ncn(-c3cc(OCc4ccccc4C(F)(F)F)c(C(N)=O)s3)c2cc1OC + COc1cccc2cc(-c3nc([C@H]4CC[C@H](C(=O)O)CC4)n4ncnc(N)c34)[nH]c12 [OSI-027] (partner 0.5 µM)
How it was run: as §1

[9] = compound: COc1cc2ncn(-c3cc(OCc4ccccc4C(F)(F)F)c(C(N)=O)s3)c2cc1OC + O=C(c1cc(Cc2n[nH]c(=O)c3ccccc23)ccc1F)N1CCN(C(=O)C2CC2)CC1 [Olaparib] (partner 8 µM)
How it was run: as §1

[10] = compound: COc1cc2ncn(-c3cc(OCc4ccccc4C(F)(F)F)c(C(N)=O)s3)c2cc1OC + Nc1nc2[nH]cc(CCc3ccc(C(=O)N[C@@H](CCC(=O)O)C(=O)O)cc3)c2c(=O)[nH]1 [Pemetrexed] (partner 0.2 µM)
How it was run: as §1

[11] = compound: COc1cc2ncn(-c3cc(OCc4ccccc4C(F)(F)F)c(C(N)=O)s3)c2cc1OC + COc1cc2c(Oc3ccc(NC(=O)C4(C(=O)Nc5ccc(F)cc5)CC4)cc3F)ccnc2cc1OCCCN1CCOCC1 [Foretinib] (partner 0.25 µM)
How it was run: as §1

[12] = compound: COc1cc2ncn(-c3cc(OCc4ccccc4C(F)(F)F)c(C(N)=O)s3)c2cc1OC + N=C(N)NC(=N)NCCc1ccccc1 [Phenformin] (partner 250 µM)
How it was run: as §1

[13] = compound: COc1cc2ncn(-c3cc(OCc4ccccc4C(F)(F)F)c(C(N)=O)s3)c2cc1OC + Nc1ncn([C@H]2C[C@H](O)[C@@H](CO)O2)c(=O)n1 [Decitabine] (partner 2 µM)
How it was run: as §1

[14] = compound: COc1cc2ncn(-c3cc(OCc4ccccc4C(F)(F)F)c(C(N)=O)s3)c2cc1OC + Cc1nc(Nc2ncc(C(=O)Nc3c(C)cccc3Cl)s2)cc(N2CCN(CCO)CC2)n1 [Dasatinib] (partner 0.075 µM)
How it was run: as §1

Cell Line: NCI-H2342
- relative viability ([1]; 0.05 µM): 1.09
- relative viability ([1]; 0.1581 µM): 1
- relative viability ([1]; 0.5 µM): 0.855
- relative viability ([1]; 1.581 µM): 0.623
- relative viability ([1]; 5 µM): 0.466
- relative viability ([2]; first compound 0.05 µM): 0.917
- relative viability ([2]; first compound 0.1581 µM): 0.744
- relative viability ([2]; first compound 0.5 µM): 0.595
- relative viability ([2]; first compound 1.581 µM): 0.693
- relative viability ([2]; first compound 5 µM): 0.527
- relative viability ([3]; first compound 0.05 µM): 0.519
- relative viability ([3]; first compound 0.1581 µM): 0.509
- relative viability ([3]; first compound 0.5 µM): 0.513
- relative viability ([3]; first compound 1.581 µM): 0.437
- relative viability ([3]; first compound 5 µM): 0.422
- relative viability ([4]; first compound 0.05 µM): 0.794
- relative viability ([4]; first compound 0.1581 µM): 0.757
- relative viability ([4]; first compound 0.5 µM): 0.696
- relative viability ([4]; first compound 1.581 µM): 0.607
- relative viability ([4]; first compound 5 µM): 0.598
- relative viability ([5]; first compound 0.05 µM): 0.611
- relative viability ([5]; first compound 0.1581 µM): 0.54
- relative viability ([5]; first compound 0.5 µM): 0.333
- relative viability ([5]; first compound 1.581 µM): 0.334
- relative viability ([5]; first compound 5 µM): 0.337
- relative viability ([6]; first compound 0.05 µM): 0.593
- relative viability ([6]; first compound 0.1581 µM): 0.476
- relative viability ([6]; first compound 0.5 µM): 0.374
- relative viability ([6]; first compound 1.581 µM): 0.38
- relative viability ([6]; first compound 5 µM): 0.425
- relative viability ([7]; first compound 0.05 µM): 0.757
- relative viability ([7]; first compound 0.1581 µM): 0.752
- relative viability ([7]; first compound 0.5 µM): 0.715
- relative viability ([7]; first compound 1.581 µM): 0.597
- relative viability ([7]; first compound 5 µM): 0.545
- relative viability ([8]; first compound 0.05 µM): 0.614
- relative viability ([8]; first compound 0.1581 µM): 0.579
- relative viability ([8]; first compound 0.5 µM): 0.56
- relative viability ([8]; first compound 1.581 µM): 0.416
- relative viability ([8]; first compound 5 µM): 0.375
- relative viability ([9]; first compound 0.05 µM): 0.389
- relative viability ([9]; first compound 0.1581 µM): 0.437
- relative viability ([9]; first compound 0.5 µM): 0.407
- relative viability ([9]; first compound 1.581 µM): 0.388
- relative viability ([9]; first compound 5 µM): 0.421
- relative viability ([10]; first compound 0.05 µM): 0.773
- relative viability ([10]; first compound 0.1581 µM): 0.782
- relative viability ([10]; first compound 0.5 µM): 0.56
- relative viability ([10]; first compound 1.581 µM): 0.518
- relative viability ([10]; first compound 5 µM): 0.655
- relative viability ([11]; first compound 0.05 µM): 1.13
- relative viability ([11]; first compound 0.1581 µM): 0.951
- relative viability ([11]; first compound 0.5 µM): 0.876
- relative viability ([11]; first compound 1.581 µM): 0.475
- relative viability ([11]; first compound 5 µM): 0.567
- relative viability ([12]; first compound 0.05 µM): 0.631
- relative viability ([12]; first compound 0.1581 µM): 0.652
- relative viability ([12]; first compound 0.5 µM): 0.457
- relative viability ([12]; first compound 1.581 µM): 0.379
- relative viability ([12]; first compound 5 µM): 0.299
- relative viability ([13]; first compound 0.05 µM): 0.628
- relative viability ([13]; first compound 0.1581 µM): 0.701
- relative viability ([13]; first compound 0.5 µM): 0.626
- relative viability ([13]; first compound 1.581 µM): 0.569
- relative viability ([13]; first compound 5 µM): 0.528
- relative viability ([14]; first compound 0.05 µM): 0.325
- relative viability ([14]; first compound 0.1581 µM): 0.354
- relative viability ([14]; first compound 0.5 µM): 0.279
- relative viability ([14]; first compound 1.581 µM): 0.278
- relative viability ([14]; first compound 5 µM): 0.237

Cell Line: NCI-H1623
- relative viability ([1]; 0.05 µM): 0.962
- relative viability ([1]; 0.1581 µM): 0.975
- relative viability ([1]; 0.5 µM): 0.694
- relative viability ([1]; 1.581 µM): 0.439
- relative viability ([1]; 5 µM): 0.758
- relative viability ([5]; first compound 0.05 µM): 0.438
- relative viability ([5]; first compound 0.1581 µM): 0.382
- relative viability ([5]; first compound 0.5 µM): 0.386
- relative viability ([5]; first compound 5 µM): 0.399
- relative viability ([7]; first compound 0.05 µM): 0.49
- relative viability ([7]; first compound 0.1581 µM): 0.485
- relative viability ([7]; first compound 0.5 µM): 0.435
- relative viability ([7]; first compound 5 µM): 0.37
- relative viability ([8]; first compound 0.05 µM): 0.478
- relative viability ([8]; first compound 0.1581 µM): 0.429
- relative viability ([8]; first compound 0.5 µM): 0.376
- relative viability ([8]; first compound 1.581 µM): 0.281
- relative viability ([8]; first compound 5 µM): 0.349
- relative viability ([11]; first compound 0.05 µM): 0.824
- relative viability ([11]; first compound 0.1581 µM): 0.723
- relative viability ([11]; first compound 0.5 µM): 0.62
- relative viability ([11]; first compound 1.581 µM): 0.426
- relative viability ([11]; first compound 5 µM): 0.694
- relative viability ([12]; first compound 0.05 µM): 0.588
- relative viability ([12]; first compound 0.1581 µM): 0.395
- relative viability ([12]; first compound 0.5 µM): 0.463
- relative viability ([12]; first compound 5 µM): 0.576
- relative viability ([14]; first compound 0.05 µM): 0.525
- relative viability ([14]; first compound 0.1581 µM): 0.447
- relative viability ([14]; first compound 0.5 µM): 0.508
- relative viability ([14]; first compound 5 µM): 0.557
